Laboratory results published in patent US20150065717A1, “NIPECOTIC ACID DERIVATIVE AND USE THEREOF FOR MEDICAL PURPOSES” (Toray Industries, Inc., priority 2012, published 2015).

Biological target: T1, recombinant human sEH (Homo sapiens, UniProt P34913)
T1 construct: purchased Cayman
T1 sequence (P34913 1-555): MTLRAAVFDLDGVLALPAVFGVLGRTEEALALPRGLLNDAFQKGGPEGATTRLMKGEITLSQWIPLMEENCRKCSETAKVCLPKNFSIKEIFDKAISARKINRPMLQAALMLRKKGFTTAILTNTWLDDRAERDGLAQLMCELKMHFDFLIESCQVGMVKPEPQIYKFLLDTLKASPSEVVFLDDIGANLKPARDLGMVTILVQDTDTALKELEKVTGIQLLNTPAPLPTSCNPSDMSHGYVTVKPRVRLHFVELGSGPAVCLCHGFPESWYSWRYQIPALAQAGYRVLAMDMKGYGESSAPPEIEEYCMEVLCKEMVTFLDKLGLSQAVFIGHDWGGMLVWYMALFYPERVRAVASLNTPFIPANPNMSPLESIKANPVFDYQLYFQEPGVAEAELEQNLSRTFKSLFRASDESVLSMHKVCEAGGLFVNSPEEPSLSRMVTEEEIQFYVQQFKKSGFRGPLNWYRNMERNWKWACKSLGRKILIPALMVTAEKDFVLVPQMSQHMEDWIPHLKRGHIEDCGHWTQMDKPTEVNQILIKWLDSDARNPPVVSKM
Assay: In vitro evaluation test for sEH inhibitory activity
Type: biochemical
Details: recombinant human sEH 0.026 μg/mL, fluorescent substrate 6.25 μmol/L, room temperature
Description: According to the method described in a known document (Analytical Biochemistry, 2005, vol. 343, p. 66-75), the sEH inhibitory activity of each nipecotic acid derivative (I) or a pharmaceutically acceptable salt thereof was evaluated using human sEH.
A recombinant human sEH (final concentration, 0.026 μg/mL; Cayman) was incubated with each test compound in 25 mM Bis-Tris-HCl buffer (pH 7.0) supplemented with 0.1 mg/mL BSA at room temperature for 30 minutes. Thereafter, cyano(6-methoxynaphthalen-2-yl)methyl 2-(3-phenyloxiran-2-yl)acetate (final concentration, 6.25 μmol/L; Cayman) was added thereto as a fluorescent substrate, and the resulting mixture was incubated at room temperature for 20 minutes. The reaction was then stopped by addition of ZnSO4 (final concentration, 0.2 mol/L), and the fluorescence intensity was measured (Fusion α (Packard); Excitation: 330 nm, Emission:485 nm).
The fluorescence intensity observed with addition of neither sEH nor a test compound was regarded as the sEH enzymatic reaction rate of 0%, and the fluorescence intensity observed with addition of sEH but without addition of a test compound was regarded as the sEH enzymatic reaction rate of 100%. From the obtained fluorescence intensity, the sEH enzymatic reaction rate of each test compound was calculated to determine IC50.

Structure (SMILES) | IC50 [nM]
CC(C)(C)C(=O)NC1(C(=O)N2CCC[C@@H](C(=O)NCc3ccc(C#N)cc3OC(F)(F)F)C2)CCC1 [Example Compound 7, (R)—N-(4-cyano-2-(trifluoromethoxy)benzyl)-1-(1-pivalamidocyclobutanecarbonyl)piperidine-3-carboxamide] | 0.8
N#Cc1ccc(CNC(=O)[C@@H]2CCCN(C(=O)C3(NC(=O)CC4CC4)CC3)C2)c(OC(F)(F)F)c1 [Example Compound 35, (R)—N-(4-cyano-2-(trifluoromethoxy)benzyl)-1-(1-(2-cyclopropylacetamido)cyclopropanecarbonyl)piperidine-3-carboxamide] | 6.7
CC(C)[C@@H](O)C(=O)N1CCC[C@@H](C(=O)NCc2ccc(C#N)cc2OC(F)(F)F)C1 [Example Compound 44, (R)—N-(4-cyano-2-(trifluoromethoxy)benzyl)-1-((R)-2-hydroxy-3-methylbutanoyl)piperidine-3-carboxamide] | 0.5
N#Cc1ccc(CNC(=O)[C@@H]2CCCN(C(=O)C3(O)CCCCC3)C2)c(OC(F)(F)F)c1 [Example Compound 20, (R)—N-(4-cyano-2-(trifluoromethoxy)benzyl)-1-(1-hydroxycyclohexanecarbonyl)piperidine-3-carboxamide] | 0.7
CC(C)(O)[C@@H](NS(C)(=O)=O)C(=O)N1CCC[C@@H](C(=O)NCc2ccc(C#N)cc2OC(F)(F)F)C1 [Example Compound 32, (R)—N-(4-cyano-2-(trifluoromethoxy)benzyl)-1-((R)-3-hydroxy-3-methyl-2-(methylsulfonamido)butanoyl)piperidine-3-carboxamide] | 1
CC(=O)N[C@H](C)C(=O)N1CCC[C@@H](C(=O)NCc2ccc(C#N)cc2OC(F)(F)F)C1 [Example Compound 24, (R)-1-((R)-2-acetamidopropanoyl)-N-(4-cyano-2-(trifluoromethoxy)benzyl)piperidine-3-carboxamide] | 2.5
CC(C)C(=O)NC1(C(=O)N2CCC[C@@H](C(=O)NCc3ccc(C#N)cc3OC(F)(F)F)C2)CC1 [Example Compound 26, (R)—N-(4-cyano-2-(trifluoromethoxy)benzyl)-1-(1-isobutylamidocyclopropanecarbonyl)piperidine-3-carboxamide] | 5.8
N#Cc1ccc(CNC(=O)[C@@H]2CCCN(C(=O)C3(C#N)CC3)C2)c(OC(F)(F)F)c1 [Example Compound 23, (R)—N-(4-cyano-2-(trifluoromethoxy)benzyl)-1-(1-cyanocyclopropanecarbonyl)piperidine-3-carboxamide] | 1.8
CC(=O)N[C@@H](C(=O)N1CCC[C@@H](C(=O)NCc2ccc(C#N)cc2OC(F)(F)F)C1)C(C)C [Example Compound 11, (R)-1-((R)-2-acetamido-3-methylbutanoyl)-N-(4-cyano-2-(trifluoromethoxy)benzyl)piperidine-3-carboxamide] | 0.5
CC(C)(CO)C(=O)N1CCC[C@@H](C(=O)NCc2ccc(C#N)cc2OC(F)(F)F)C1 [Example Compound 19, (R)—N-(4-cyano-2-(trifluoromethoxy)benzyl)-1-(3-hydroxy-2,2-dimethylpropanoyl)piperidine-3-carboxamide] | 1.3
C[C@@H](O)C(=O)N1CCC[C@@H](C(=O)NCc2ccc(C#N)cc2OC(F)(F)F)C1 [Example Compound 42, (R)—N-(4-cyano-2-(trifluoromethoxy)benzyl)-1-((R)-2-hydroxypropanoyl)piperidine-3-carboxamide] | 3.5
CC(C)(C)C(=O)N1CCC[C@@H](C(=O)NCc2ccc(C#N)cc2OC(F)(F)F)C1 [Example Compound 17, (R)—N-(4-cyano-2-(trifluoromethoxy)benzyl)-1-pivaloylpiperidine-3-carboxamide] | 1.1
N#Cc1ccc(CNC(=O)[C@@H]2CCCN(C(=O)C3(NC(=O)CC4CC4)CCC3)C2)c(OC(F)(F)F)c1 [Example Compound 34, (R)—N-(4-cyano-2-(trifluoromethoxy)benzyl)-1-(1-(2-cyclopropylacetamido)cyclobutanecarbonyl)piperidine-3-carboxamide] | 0.8
N#Cc1ccc(CNC(=O)[C@@H]2CCCN(C(=O)C3(NC(=O)C4CC4)CCC3)C2)c(OC(F)(F)F)c1 [Example Compound 29, (R)—N-(4-cyano-2-(trifluoromethoxy)benzyl)-1-(1-(cyclopropanecarboxamide)cyclobutanecarbonyl)piperidine-3-carboxamide] | 1.7
CC(C)(O)C(=O)N1CCC[C@@H](C(=O)NCc2ccc(C#N)cc2OC(F)(F)F)C1 [Example Compound 16, (R)—N-(4-cyano-2-(trifluoromethoxy)benzyl)-1-(2-hydroxy-2-methylpropanoyl)piperidine-3-carboxamide] | 2.4
CC(C)(C)C(=O)NC1(C(=O)N2CCC[C@@H](C(=O)NCc3ccc(C#N)cc3OC(F)(F)F)C2)CC1 [Example Compound 27, (R)—N-(4-cyano-2-(trifluoromethoxy)benzyl)-1-(1-pivalamidocyclopropanecarbonyl)piperidine-3-carboxamide] | 2.2
CCS(=O)(=O)NC1(C(=O)N2CCC[C@@H](C(=O)NCc3ccc(C#N)cc3OC(F)(F)F)C2)CC1 [Example Compound 13, (R)—N-(4-cyano-2-(trifluoromethoxy)benzyl)-1-(1-(ethylsulfonamido)cyclopropanecarbonyl)piperidine-3-carboxamide] | 1.4
CS(=O)(=O)NC1(C(=O)N2CCC[C@@H](C(=O)NCc3ccc(C#N)cc3OC(F)(F)F)C2)CCC1 [Example Compound 5, (R)—N-(4-cyano-2-(trifluoromethoxy)benzyl)-1-(1-(methylsulfonamido)cyclobutanecarbonyl)piperidine-3-carboxamide] | 1
O=C(NCc1ccc(Cl)cc1Cl)[C@@H]1CCCN(C(=O)C2(O)CCCCC2)C1 [Example Compound 38, (R)—N-(2,4-dichlorobenzyl)-1-(1-hydroxycyclohexanecarbonyl)piperidine-3-carboxamide] | 2.1
CC(=O)N[C@@H](C(=O)N1CCC[C@@H](C(=O)NCc2ccc(C#N)cc2OC(F)(F)F)C1)C(C)(C)O [Example Compound 30, (R)-1-((R)-2-acetamido-3-hydroxy-3-methylbutanoyl)-N-(4-cyano-2-(trifluoromethoxy)benzyl)piperidine-3-carboxamide] | 1.4
CC(C)(NS(C)(=O)=O)C(=O)N1CCC[C@@H](C(=O)NCc2ccc(C(N)=O)cc2OC(F)(F)F)C1 [Example Compound 14, (R)—N-(4-carbamoyl-2-(trifluoromethoxy)benzyl)-1-(2-methyl-2-(methylsulfonamido)propanoyl)piperidine-3-carboxamide] | 1.5
CC(=O)N[C@@H](C(=O)N1CCC[C@@H](C(=O)NCc2ccc(Cl)cc2Cl)C1)C(C)(C)O [Example Compound 39] | 0.7
CC[C@@H](NC(C)=O)C(=O)N1CCC[C@@H](C(=O)NCc2ccc(C#N)cc2OC(F)(F)F)C1 [Example Compound 21, (R)-1-((R)-2-acetamidobutanoyl)-N-(4-cyano-2-(trifluoromethoxy)benzyl)piperidine-3-carboxamide] | 0.9
C[C@@H](NS(C)(=O)=O)C(=O)N1CCC[C@@H](C(=O)NCc2ccc(C#N)cc2OC(F)(F)F)C1 [Example Compound 25, (R)—N-(4-cyano-2-(trifluoromethoxy)benzyl)-1-((R)-2-(methylsulfonamido)propanoyl)piperidine-3-carboxamide] | 1.8
CC(=O)NCC(=O)N1CCC[C@@H](C(=O)NCc2ccc(C#N)cc2OC(F)(F)F)C1 [Comparative Example Compound 2, (R)-1-(2-acetamidoacetyl)-N-(4-cyano-2-(trifluoromethoxy)benzyl)piperidine-3-carboxamide, reference compound] | > 30
CCC(=O)N[C@@H](C(=O)N1CCC[C@@H](C(=O)NCc2ccc(C#N)cc2OC(F)(F)F)C1)C(C)(C)O [Example Compound 31, (R)—N-(4-cyano-2-(trifluoromethoxy)benzyl)-1-((R)-3-hydroxy-3-methyl-2-propionamidobutanoyl)piperidine-3-carboxamide] | 1.3
CC(C)C(=O)NC1(C(=O)N2CCC[C@@H](C(=O)NCc3ccc(C#N)cc3OC(F)(F)F)C2)CCC1 [Example Compound 6, (R)—N-(4-cyano-2-(trifluoromethoxy)benzyl)-1-(1-isobutylamidocyclobutanecarbonyl)piperidine-3-carboxamide] | 1
